Measured values as given in patent publication US20240158348A1, “HERBICIDAL CYCLIC AMIDES N-SUBSTITUTED WITH A HALOALKYLSULFONYLANILIDE GROUP” (FMC Corporation, priority 2021, published 2024).

Legend:
Type in all cases: in vivo
[1] = tested on: blackgrass (Alopecurus myosuroides); assay: Test C preemergence, blackgrass; details: 0 is no effect, 100 is complete control
Source text: (§1) Seeds of plant species selected from blackgrass (Alopecurus myosuroides), corn (Zea mays), foxtail, giant (giant foxtail, Setaria faberi), goosegrass (Eleusine indica), kochia (Bassia scoparia), oat, wild (wild oat, Avena fatua), pigweed, palmer (palmer amaranth, Amaranthus palmeri), ragweed (common ragweed, Ambrosia artemisiifolia), ryegrass, Italian (Italian ryegrass, Lolium multiflorum), soybean (Glycine max) and wheat (Triticum aestivum) were planted into a blend of loam soil and sand and treated preemergence with a directed soil spray using test chemicals formulated in a non-phytotoxic solvent mixture which included a surfactant.
(§2) At the same time, plants selected from these crop and weed species and also galium (catchweed bedstraw, Galium aparine) and horseweed (Erigeron canadensis) were planted in pots containing the same blend of loam soil and sand and treated with postemergence applications of test chemicals formulated in the same manner. Plants ranged in height from 2 to 10 cm and were in the one- to two-leaf stage for the postemergence treatment. Treated plants and untreated controls were maintained in a greenhouse for 10 or 12 days, after which time all treated plants were compared to untreated controls and visually evaluated for injury. Plant response ratings, summarized in Table A, are based on a 0 to 100 scale where 0 is no effect and 100 is complete control. A dash (-) response means no test result.

corn (Zea mays) [2] = assay: Test C preemergence, corn; details: 0 is no effect, 100 is complete control
Source text: as §1, §2

[3] = tested on: foxtail, giant (giant foxtail, Setaria faberi); assay: Test C preemergence, giant foxtail; details: 0 is no effect, 100 is complete control
Source text: as §1, §2

[4] = tested on: goosegrass (Eleusine indica); assay: Test C preemergence, goosegrass; details: 0 is no effect, 100 is complete control
Source text: as §1, §2

kochia (Bassia scoparia) [5] = assay: Test C preemergence, kochia; details: 0 is no effect, 100 is complete control
Source text: as §1, §2

[6] = tested on: oat, wild (wild oat, Avena fatua); assay: Test C preemergence, wild oat; details: 0 is no effect, 100 is complete control
Source text: as §1, §2

[7] = tested on: pigweed, palmer (palmer amaranth, Amaranthus palmeri); assay: Test C preemergence, palmer amaranth; details: 0 is no effect, 100 is complete control
Source text: as §1, §2

[8] = tested on: ragweed (common ragweed, Ambrosia artemisiifolia); assay: Test C preemergence, ragweed; details: 0 is no effect, 100 is complete control
Source text: as §1, §2

[9] = tested on: ryegrass, Italian (Italian ryegrass, Lolium multiflorum); assay: Test C preemergence, Italian ryegrass; details: 0 is no effect, 100 is complete control
Source text: as §1, §2

soybean (Glycine max) [10] = assay: Test C preemergence, soybean; details: 0 is no effect, 100 is complete control
Source text: as §1, §2

[11] = tested on: wheat (Triticum aestivum); assay: Test C preemergence, wheat; details: 0 is no effect, 100 is complete control
Source text: as §1, §2

[12] = tested on: blackgrass (Alopecurus myosuroides); assay: Test C postemergence, blackgrass; details: 31 g ai/ha Postemergence; visual injury, 0 to 100 scale (0 no effect, 100 complete control)
Source text: as §1, §2

corn (Zea mays) [13] = assay: Test C postemergence, corn
Source text: as §1, §2

[14] = tested on: foxtail, giant (giant foxtail, Setaria faberi); assay: Test C postemergence, giant foxtail
Source text: as §1, §2

[15] = tested on: goosegrass (Eleusine indica); assay: Test C postemergence, goosegrass
Source text: as §1, §2

kochia (Bassia scoparia) [16] = assay: Test C postemergence, kochia
Source text: as §1, §2

[17] = tested on: oat, wild (wild oat, Avena fatua); assay: Test C postemergence, wild oat
Source text: as §1, §2

[18] = tested on: pigweed, palmer (palmer amaranth, Amaranthus palmeri); assay: Test C postemergence, palmer amaranth
Source text: as §1, §2

[19] = tested on: ragweed (common ragweed, Ambrosia artemisiifolia); assay: Test C postemergence, ragweed
Source text: as §1, §2

[20] = tested on: ryegrass, Italian (Italian ryegrass, Lolium multiflorum); assay: Test C postemergence, Italian ryegrass
Source text: as §1, §2

soybean (Glycine max) [21] = assay: Test C postemergence, soybean
Source text: as §1, §2

[22] = tested on: wheat (Triticum aestivum); assay: Test C postemergence, wheat
Source text: as §1, §2

[23] = tested on: galium (catchweed bedstraw, Galium aparine); assay: Test C postemergence, galium
Source text: as §1, §2

[24] = tested on: horseweed (Erigeron canadensis); assay: Test C postemergence, horseweed
Source text: as §1, §2

[25] = tested on: barnyardgrass (Echinochloa crusgalli); assay: Test D flooded paddy test, barnyardgrass; parameters: key: 0 = no effect, 100 = complete control; details: 250 g ai/ha, Flood; applied to paddy water at 2-leaf stage; visual rating after 13 days; scale 0 (no effect) to 100 (complete control)
Protocol: (§3) Plant species in the flooded paddy test selected from barnyardgrass (Echinochloa crusgalli), ducksalad (Heteranthera limosa), rice (Oryza sativa), and sedge, umbrella (small-flower umbrella sedge, Cyperus difformis) were grown to the 2-leaf stage for testing. At time of treatment, test pots were flooded to 3 cm above the soil surface, treated by application of test compounds directly to the paddy water, and then maintained at that water depth for the duration of the test. Treated plants and controls were maintained in a greenhouse for 13 days, after which time all species were compared to controls and visually evaluated. Plant response ratings, summarized in Table B, are based on a scale of 0 to 100 where 0 is no effect and 100 is complete control. A dash (-) response means no test result.

[26] = tested on: ducksalad (Heteranthera limosa); assay: Test D flooded paddy test, ducksalad; parameters: key: 0 = no effect, 100 = complete control; details: 250 g ai/ha, Flood; applied to paddy water at 2-leaf stage; visual rating after 13 days; scale 0 (no effect) to 100 (complete control)
Protocol: as §3

rice (Oryza sativa) = assay: Test D flooded paddy test, rice; parameters: key: 0 = no effect, 100 = complete control; details: 250 g ai/ha, Flood; applied to paddy water at 2-leaf stage; visual rating after 13 days; scale 0 (no effect) to 100 (complete control)
Protocol: as §3

[27] = tested on: sedge, umbrella (small-flower umbrella sedge, Cyperus difformis); assay: Test D flooded paddy test, umbrella sedge; parameters: key: 0 = no effect, 100 = complete control; details: 250 g ai/ha, Flood; applied to paddy water at 2-leaf stage; visual rating after 13 days; scale 0 (no effect) to 100 (complete control)
Protocol: as §3

[28] = tested on: blackgrass (Alopecurus myosuroides); assay: Test C postemergence, blackgrass; details: 125 g ai/ha Postemergence; 0 is no effect, 100 is complete control
[29] = 31 g ai/ha Postemergence, visual injury, 0 to 100 scale (0 no effect, 100 complete control)
[30] = 125 g ai/ha Postemergence, 0 is no effect, 100 is complete control

## COC(=O)N(c1cc(N2CCC(OC3CC3)C2=O)c(C)cc1C)S(=O)(=O)C(F)(F)F (stereo not shown) [Compound 16]
[1]; 31 g ai/ha Preemergence
  Plant response rating (0 to 100 scale), Blackgrass: 0
[1]; 125 g ai/ha Preemergence
  Plant response rating (0 to 100 scale), Blackgrass: 0
Corn (Zea mays) [2]; 31 g ai/ha Preemergence
  Plant response rating (0 to 100 scale), Corn: 0
Corn (Zea mays) [2]; 125 g ai/ha Preemergence
  Plant response rating (0 to 100 scale), Corn: 0
[3]; 31 g ai/ha Preemergence
  Plant response rating (0 to 100 scale), Foxtail, Giant: 0
[3]; 125 g ai/ha Preemergence
  Plant response rating (0 to 100 scale), Foxtail, Giant: 0
[4]; 31 g ai/ha Preemergence
  Plant response rating (0 to 100 scale), Goosegrass: 0
[4]; 125 g ai/ha Preemergence
  Plant response rating (0 to 100 scale), Goosegrass: 0
Kochia (Bassia scoparia) [5]; 31 g ai/ha Preemergence
  Plant response rating (0 to 100 scale), Kochia: 0
Kochia (Bassia scoparia) [5]; 125 g ai/ha Preemergence
  Plant response rating (0 to 100 scale), Kochia: 0
[6]; 31 g ai/ha Preemergence
  Plant response rating (0 to 100 scale), Oat, Wild: 0
[6]; 125 g ai/ha Preemergence
  Plant response rating (0 to 100 scale), Oat, Wild: 0
[7]; 31 g ai/ha Preemergence
  Plant response rating (0 to 100 scale), Pigweed, Palmer: 0
[7]; 125 g ai/ha Preemergence
  Plant response rating (0 to 100 scale), Pigweed, Palmer: 0
[8]; 31 g ai/ha Preemergence
  Plant response rating (0 to 100 scale), Ragweed: 0
[8]; 125 g ai/ha Preemergence
  Plant response rating (0 to 100 scale), Ragweed: 0
[9]; 31 g ai/ha Preemergence
  Plant response rating (0 to 100 scale), Ryegrass, Italian: 0
[9]; 125 g ai/ha Preemergence
  Plant response rating (0 to 100 scale), Ryegrass, Italian: 0
Soybean (Glycine max) [10]; 31 g ai/ha Preemergence
  Plant response rating (0 to 100 scale), Soybean: 20
Soybean (Glycine max) [10]; 125 g ai/ha Preemergence
  Plant response rating (0 to 100 scale), Soybean: 20
[11]; 31 g ai/ha Preemergence
  Plant response rating (0 to 100 scale), Wheat: 0
[11]; 125 g ai/ha Preemergence
  Plant response rating (0 to 100 scale), Wheat: 0
[12]
  Blackgrass plant response rating: 0
Corn (Zea mays) [13]; [29]
  Corn plant response rating: 0
Corn (Zea mays) [13]; [30]
  Plant response rating (0 to 100 scale), Corn: 0
[14]; [29]
  Foxtail, Giant plant response rating: 0
[14]; [30]
  Plant response rating (0 to 100 scale), Foxtail, Giant: 0
[15]; [29]
  Goosegrass plant response rating: 0
[15]; [30]
  Plant response rating (0 to 100 scale), Goosegrass: 0
Kochia (Bassia scoparia) [16]; [29]
  Kochia plant response rating: 20
Kochia (Bassia scoparia) [16]; [30]
  Plant response rating (0 to 100 scale), Kochia: 10
[17]; [29]
  Oat, Wild plant response rating: 0
[17]; [30]
  Plant response rating (0 to 100 scale), Oat, Wild: 0
[18]; [29]
  Pigweed, Palmer plant response rating: 0
[18]; [30]
  Plant response rating (0 to 100 scale), Pigweed, Palmer: 0
[19]; [29]
  Ragweed plant response rating: 80
[19]; [30]
  Plant response rating (0 to 100 scale), Ragweed: 90
[20]; [29]
  Ryegrass, Italian plant response rating: 0
[20]; [30]
  Plant response rating (0 to 100 scale), Ryegrass, Italian: 0
Soybean (Glycine max) [21]; [29]
  Soybean plant response rating: 40
Soybean (Glycine max) [21]; [30]
  Plant response rating (0 to 100 scale), Soybean: 60
[22]; [29]
  Wheat plant response rating: 0
[22]; [30]
  Plant response rating (0 to 100 scale), Wheat: 0
[23]; [29]
  Galium plant response rating: 50
[23]; [30]
  Plant response rating (0 to 100 scale), Galium: 50
[24]; [29]
  Horseweed plant response rating: 0
[24]; [30]
  Plant response rating (0 to 100 scale), Horseweed: 30
[25]
  Plant response rating, Barnyardgrass: 0
[26]
  Plant response rating, Ducksalad: 0
Rice (Oryza sativa)
  Plant response rating, Rice: 0
[27]
  Plant response rating, Sedge, Umbrella: 0
[28]
  Plant response rating (0 to 100 scale), Blackgrass: 0
